Assay results from patent publication US11260023B2, “Topical compositions containing rofecoxib and methods of making and using the same” (BRIORI BIOTECH, LLC, priority 2020, dated 2022).
Several values for one entry are separate records, joined by “and”; a condition that tells them apart may be missing. Equal entries are not always repeated.

Test: Solubility of rofecoxib in solvent systems containing two or three solvents; synergistic or antagonist effect
Type: physicochemical
Protocol: The solubility of rofecoxib in solvent systems containing two or three solvents was determined. In solvent systems containing two solvents, […] of each solvent was added to 100 mg of rofecoxib. In solvent systems containing three solvents, […] of each solvent was added to 100 mg of rofecoxib. The samples were mixed using the protocol for solvent systems containing single solvents above. Serial dilutions of the rofecoxib solvent solutions were made (1:100 v:v), (1:1000 v/v), and (1:2000 v/v). Solvents without rofecoxib were diluted with methanol and used to blank a Beckman DU-7400 spectrophotometer. The absorbance of the samples was determined at a wavelength of 279.1 nm. The concentration of rofecoxib dissolved in the solvent was calculated using Beer's Law. The ability of the solvent systems to synergistically dissolve rofecoxib or antagonistically dissolve rofecoxib (reduce the ability of rofecoxib to dissolve was determined) according to the protocol below. The contribution for solubility of a single solvent in a two-mixture solution was calculated to be ½ of the calculated solubility of rofecoxib in one gram of excipient. Likewise, the contribution for solubility of a three-mixture was calculated to be ⅓ of the calculated solubility of rofecoxib in one gram of excipient. The expected solubility for a mixture is the addition of the contribution of each excipient. […] The percent change between the expected solubility and actual solubility was determined. […] Similar calculations are utilized for solvent systems containing three or more solvents.

- expected solubility of rofecoxib in 500 μg of acetone (contribution of acetone in system of equal amounts acetone and benzyl alcohol): 11.79 mg/g
- expected solubility of rofecoxib in 500 μg of benzyl alcohol (contribution of benzyl alcohol in system of equal amounts acetone and benzyl alcohol): 9.77 mg/g
- % Change (observed vs expected solubility) (in AC + DGME): 139.9%
- Expected Solubility (in AC + DGME): 16.30 mg/g
- Observed Solubility (in AC + DGME): 22.80 mg/g
- % Change (observed vs expected solubility) (in AC + EA): 109.7%
- Expected Solubility (in AC + EA): 14.52 mg/g
- Observed Solubility (in AC + EA): 15.92 mg/g
- % Change (observed vs expected solubility) (in AC + MP): 97.9% and 52.7%
- Expected Solubility (in AC + MP): 110.77 mg/g
- Observed Solubility (in AC + MP): 108.48 mg/g and 58.38 mg/g
- % Change (observed vs expected solubility) (in AC + MP + PEG): 34.29%
- Expected Solubility (in AC + MP + PEG): 78.24 mg/g
- % Change (observed vs expected solubility) (in AC + MP + PGD): 77.19%
- Expected Solubility (in AC + MP + PGD): 76.17 mg/g
- % Change (observed vs expected solubility) (in AC + PEG): 137.2% and 174.3%
- Expected Solubility (in AC + PEG): 18.34 mg/g
- Observed Solubility (in AC + PEG): 25.15 mg/g and 31.96 mg/g
- Expected Solubility (in AC + PEG + PGD): 14.55 mg/g
- % Change (observed vs expected solubility) (in AC + PGD): 124.0% and 113.7%
- Expected Solubility (in AC + PGD): 15.23 mg/g
- Observed Solubility (in AC + PGD): 18.88 mg/g and 17.32 mg/g
- % Change (observed vs expected solubility) (in BA + AC): 150.7% and 134.8% and 100.7% and 185.3%
- Expected Solubility (in BA + AC): 21.54 mg/g and 31.65 mg/g
- % Change (observed vs expected solubility) (in BA + AC + MP): 48.23%
- Expected Solubility (in BA + AC + MP): 80.37 mg/g
- Expected Solubility (in BA + AC + PEG): 18.75 mg/g
- % Change (observed vs expected solubility) (in BA + AC + PGD): 197.12%
- Expected Solubility (in BA + AC + PGD): 16.68 mg/g
- Observed Solubility (in BA + AC + PGD): 32.89 mg/g
- Expected Solubility (in BA + AC, listed as rofecoxib): 21.56 mg/g
- % Change (observed vs expected solubility) (in BA + DGME): 64.2%
- Expected Solubility (in BA + DGME): 14.31 mg/g
- Observed Solubility (in BA + DGME): 9.18 mg/g
- % Change (observed vs expected solubility) (in BA + EA): 116.8%
- Expected Solubility (in BA + EA): 12.52 mg/g
- Observed Solubility (in BA + EA): 14.63 mg/g
- % Change (observed vs expected solubility) (in BA + MP): 41.3% and 30.8%
- Expected Solubility (in BA + MP): 108.77 mg/g
- Observed Solubility (in BA + MP): 44.97 mg/g and 33.53 mg/g
- % Change (observed vs expected solubility) (in BA + MP + PEG): 40.43%
- Expected Solubility (in BA + MP + PEG): 76.89 mg/g
- % Change (observed vs expected solubility) (in BA + MP + PGD): 85.42%
- Expected Solubility (in BA + MP + PGD): 74.82 mg/g
- % Change (observed vs expected solubility) (in BA + PEG): 63.2% and 61.6% and 60.6%
- Expected Solubility (in BA + PEG): 16.34 mg/g
- Observed Solubility (in BA + PEG): 10.33 mg/g and 10.06 mg/g and 9.91 mg/g
- Expected Solubility (in BA + PEG + PGD): 13.20 mg/g
- % Change (observed vs expected solubility) (in BA + PGD): 110.9% and 103.2%
- Expected Solubility (in BA + PGD): 13.24 mg/g
- Observed Solubility (in BA + PGD): 14.67 mg/g and 13.66 mg/g
- % Change (observed vs expected solubility) (in DGME + EA): 117.3%
- Expected Solubility (in DGME + EA): 7.29 mg/g
- Observed Solubility (in DGME + EA): 8.54 mg/g
- % Change (observed vs expected solubility) (in DGME + PGD): 115.7%
- Expected Solubility (in DGME + PGD): 8.00 mg/g
- Observed Solubility (in DGME + PGD): 9.26 mg/g
- % Change (observed vs expected solubility) (in DI + AC): 134.6%
- Expected Solubility (in DI + AC): 31.34 mg/g
- Observed Solubility (in DI + AC): 42.18 mg/g
- % Change (observed vs expected solubility) (in DI + BA): 72.3%
- Expected Solubility (in DI + BA): 29.34 mg/g
- Observed Solubility (in DI + BA): 21.20 mg/g
- % Change (observed vs expected solubility) (in DI + BA + DMSO): 85.05%
- Expected Solubility (in DI + BA + DMSO): 67.43 mg/g
- % Change (observed vs expected solubility) (in DI + BA + PC): 155.19%
- Expected Solubility (in DI + BA + PC): 36.04 mg/g
- Observed Solubility (in DI + BA + PC): 55.93 mg/g
- % Change (observed vs expected solubility) (in DI + DGME): 95.0%
- Expected Solubility (in DI + DGME): 24.11 mg/g
- Observed Solubility (in DI + DGME): 22.91 mg/g
- % Change (observed vs expected solubility) (in DI + EA): 69.9%
- Expected Solubility (in DI + EA): 22.32 mg/g
- Observed Solubility (in DI + EA): 15.60 mg/g
- % Change (observed vs expected solubility) (in DI + MP): 71.6%
- Expected Solubility (in DI + MP): 118.57 mg/g
- Observed Solubility (in DI + MP): 84.92 mg/g
- % Change (observed vs expected solubility) (in DI + PC): 133.9% and 130.6%
- Expected Solubility (in DI + PC): 44.29 mg/g
- Observed Solubility (in DI + PC): 59.30 mg/g and 57.83 mg/g
- % Change (observed vs expected solubility) (in DI + PC + AC): 143.72%
- Expected Solubility (in DI + PC + AC): 37.38 mg/g
- Observed Solubility (in DI + PC + AC): 53.73 mg/g
- % Change (observed vs expected solubility) (in DI + PC + BA): 132.30%
- Expected Solubility (in DI + PC + BA): 36.04 mg/g
- Observed Solubility (in DI + PC + BA): 47.68 mg/g
- % Change (observed vs expected solubility) (in DI + PC + DGME): 123.28%
- Expected Solubility (in DI + PC + DGME): 32.55 mg/g
- Observed Solubility (in DI + PC + DGME): 40.12 mg/g
- % Change (observed vs expected solubility) (in DI + PC + DMSO): 114.83%
- Expected Solubility (in DI + PC + DMSO): 77.39 mg/g
- % Change (observed vs expected solubility) (in DI + PC + EA): 128.04%
- Expected Solubility (in DI + PC + EA): 31.36 mg/g
- Observed Solubility (in DI + PC + EA): 40.15 mg/g
- % Change (observed vs expected solubility) (in DI + PC + PEG): 119.10%
- Expected Solubility (in DI + PC + PEG): 33.90 mg/g
- Observed Solubility (in DI + PC + PEG): 40.38 mg/g
- % Change (observed vs expected solubility) (in DI + PC + PGD): 115.12%
- Expected Solubility (in DI + PC + PGD): 31.83 mg/g
- Observed Solubility (in DI + PC + PGD): 36.65 mg/g
- % Change (observed vs expected solubility) (in DI + PEG): 105.8%
- Expected Solubility (in DI + PEG): 26.14 mg/g
- Observed Solubility (in DI + PEG): 27.65 mg/g
Compound: CS(=O)(=O)c1ccc(C2=C(c3ccccc3)C(=O)OC2)cc1 [Rofecoxib]
- Synergistic effect of three-solvent systems on dissolving rofecoxib (AC/PEG/PGD, BA/AC/PEG, BA/PEG/PGD, PC/AC/PGD, BA/AC/PGD, PC/PEG/PGD, DI/PC/AC, PC/BA/AC, DI/PC/BA, DI/PC/EA, PC/AC/PEG, DI/PC/DGME, DI/PC/PEG, DI/PC/PGD, DI/BA/PC, DI/PC/DMSO): work synergistically to dissolve rofecoxib
- Synergistic effect of two-solvent systems on dissolving rofecoxib (BA/AC, AC/PEG, EA/PPG, PEG/EA, AC/DGME, AC/PC, AC/DI, PC/DI, PEG/PGD, AC/PGD, DI/PGD, PC/PGD, EA/DMSO, PEG/DGME, EA/DGME, EA/BA, DGME/PGD, BA/PGD, EA/M24D): work synergistically to dissolve rofecoxib
- Observed Solubility (in BA + AC): 32.46 mg/g and 29.03 mg/g and 31.86 mg/g and 39.91 mg/g
